From article PMC9555642 (PLoS ONE, 2022)

What was measured:
HDAC8 = molecular target: T1, HDAC8 (Homo sapiens, UniProt Q9BY41); assay: HDAC enzymatic activity (Eurofins); format: biochemical; details: Class I; ACY-1083 mean of two separate measurements, Ricolinostat and Tubastatin A one measurement
T1 construct: purchased Eurofins Pharma Discovery Services 2247
T1 sequence (Q9BY41 1-377): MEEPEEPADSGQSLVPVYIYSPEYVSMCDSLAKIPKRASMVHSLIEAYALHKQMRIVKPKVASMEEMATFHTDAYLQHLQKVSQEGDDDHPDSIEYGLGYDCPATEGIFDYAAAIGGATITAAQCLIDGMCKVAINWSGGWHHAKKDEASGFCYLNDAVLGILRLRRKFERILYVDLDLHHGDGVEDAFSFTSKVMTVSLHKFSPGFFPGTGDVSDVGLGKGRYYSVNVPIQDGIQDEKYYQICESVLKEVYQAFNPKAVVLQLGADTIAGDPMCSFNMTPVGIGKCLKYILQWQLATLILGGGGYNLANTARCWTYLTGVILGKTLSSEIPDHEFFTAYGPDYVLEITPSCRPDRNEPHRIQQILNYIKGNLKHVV

[1] = system: healthy HBEC at ALI cultures; assay: Ciliary beat frequency; format: cell-based, human; details: TNF-challenged healthy HBEC
Procedure: For cilia beating frequency (CBF) and cell velocity measurements, donor cells of primary healthy HBECs were amplified on rat tail collagen I coated flasks and seeded on 12-mm-diameter Transwell inserts.
CBF was quantified for the differentiated healthy HBECs treated with vehicle, TNF, and TNF + ACY-1083. The plates containing the pseudostratified epithelia were incubated at 37 °C with 5% CO2 in the 3i Marianis/Yokogawa Spinning-Disk Confocal microscope (Leica Microsystems, Sugar land, USA) as reported in our previous publications. High-speed time-lapse videos were taken at 32X air at 100 Hz with a total of 250 frames using a scientific Hamamatsu C11440-42U30 CMOS camera (Bridgewater, USA). Five areas were imaged per insert. A Matlab (R2020a) script (validated against SAVA) (previously described in [58] was used to determine average CBF per video, to generate a heat map indicating CBF.

HDAC10 = molecular target: T2, HDAC10 (Homo sapiens, UniProt Q969S8); assay: HDAC enzymatic activity (Eurofins); format: biochemical; details: Class IIB; ACY-1083 mean of two separate measurements, Ricolinostat and Tubastatin A one measurement
T2 construct: purchased Eurofins Pharma Discovery Services 2662
T2 sequence (Q969S8 1-669): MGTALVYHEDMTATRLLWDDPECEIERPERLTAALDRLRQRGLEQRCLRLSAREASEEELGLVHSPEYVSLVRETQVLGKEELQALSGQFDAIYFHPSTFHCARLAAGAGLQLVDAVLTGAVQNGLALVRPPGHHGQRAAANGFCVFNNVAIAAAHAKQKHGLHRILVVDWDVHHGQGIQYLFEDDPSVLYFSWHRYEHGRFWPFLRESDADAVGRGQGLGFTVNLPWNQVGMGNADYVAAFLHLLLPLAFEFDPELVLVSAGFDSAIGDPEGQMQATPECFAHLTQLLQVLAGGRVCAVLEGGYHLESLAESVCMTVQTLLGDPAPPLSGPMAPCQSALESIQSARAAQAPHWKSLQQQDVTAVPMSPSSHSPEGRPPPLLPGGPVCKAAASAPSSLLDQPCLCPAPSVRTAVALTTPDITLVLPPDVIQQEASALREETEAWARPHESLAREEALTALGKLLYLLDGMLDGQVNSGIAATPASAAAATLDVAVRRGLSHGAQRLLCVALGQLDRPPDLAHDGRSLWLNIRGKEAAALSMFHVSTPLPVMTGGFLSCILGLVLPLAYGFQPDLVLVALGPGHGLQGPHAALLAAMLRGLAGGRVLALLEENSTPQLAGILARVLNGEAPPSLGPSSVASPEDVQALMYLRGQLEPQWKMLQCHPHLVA

[2] = Plasma protein binding, human blood plasma; format: in vitro ADME
Procedure: Plasma protein binding analysis was performed as reported previously using human blood plasma samples [52].

[3] = molecular target: T3, dopamine active transporter (DAT) (Homo sapiens, UniProt Q01959); assay: Secondary pharmacology panel (Eurofins); format: binding
T3 construct: purchased Eurofins Pharma Discovery Services
T3 sequence (Q01959 whole entry, species assumed): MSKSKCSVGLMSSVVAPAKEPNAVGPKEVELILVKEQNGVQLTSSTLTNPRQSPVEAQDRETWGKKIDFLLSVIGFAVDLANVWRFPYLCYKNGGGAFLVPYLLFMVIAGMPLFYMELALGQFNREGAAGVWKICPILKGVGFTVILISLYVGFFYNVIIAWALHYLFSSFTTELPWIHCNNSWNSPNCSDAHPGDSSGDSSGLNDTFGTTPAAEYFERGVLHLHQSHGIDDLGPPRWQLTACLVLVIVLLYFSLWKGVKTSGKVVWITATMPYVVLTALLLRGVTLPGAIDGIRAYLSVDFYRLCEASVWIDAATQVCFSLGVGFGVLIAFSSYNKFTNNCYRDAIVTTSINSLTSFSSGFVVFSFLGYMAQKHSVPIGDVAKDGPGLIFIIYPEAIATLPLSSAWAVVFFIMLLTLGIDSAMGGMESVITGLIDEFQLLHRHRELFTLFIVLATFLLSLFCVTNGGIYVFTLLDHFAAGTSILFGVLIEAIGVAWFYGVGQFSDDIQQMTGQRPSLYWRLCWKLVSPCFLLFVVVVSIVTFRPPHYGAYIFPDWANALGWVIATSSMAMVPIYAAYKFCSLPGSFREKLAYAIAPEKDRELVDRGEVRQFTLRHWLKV
Procedure: Second pharmacology screening was performed at Eurofins Pharma Discovery Services in a panel of 190 in vitro radioligand binding and enzyme assays covering a diverse set of enzymes, receptors, ion channels, and transporters.

[4] = Spike test in ALI cell media (stability and binding to plastic and media components); format: in vitro ADME
Procedure: Compound concentration was then analysed after 18hrs incubation at 37 °C by LC-MSMS (Method DMPK&BAC 001–04).

COPD HBEC ALI cultures = assay: RNA analysis (qPCR), TNF challenge; format: cell-based, human
Procedure: TEER and permeability were measured after seven days.
To study transcriptional changes, RNA purification was carried out using the RNeasy Plus 96 kit (74192) (Qiagen, Venlo, The Netherlands) according to manufacturer’s protocol. The liquid was collected and frozen at –80°C until further analysis. RNA was quantified and cDNA synthesis was performed according to standard procedures using High-capacity cDNA Reverse Transcription Kit (4368813) (ThermoFisher, Waltham, MA, US). Real-time polymerase chain reaction (qPCR) was done using validated TaqMan® Gene Expression Assays (ThermoFisher, Waltham, MA, US), IL8 (Hs00174103_m1), CCL2 (Hs00234140_m1), CXCL10 (Hs00171042_m1), MMP9 (Hs00957562_m1), IL1B (Hs01555410_m1), MUC5AC (Hs01365616_m1), MUC5B (Hs00861595_m1) with TaqMan Fast Advanced Master Mix (4444557) (Applied Biosystems, Foster City, CA, US). Samples were run in triplicates and analyzed on the QuantStudio^TM 7 Flex Real-Time PCR 384-well System (ThermoFisher Waltham, MA, US). Data was normalized to the housekeeping genes GAPDH (Hs99999905_m1), and RPLP0 (Hs99999902_m1) and delta-delta CT values were plotted (fold change to DMSO).

HDAC4 = molecular target: T4, HDAC4 (Homo sapiens, UniProt P56524); assay: HDAC enzymatic activity (Eurofins); format: biochemical; details: Class IIA; ACY-1083 mean of two separate measurements, Ricolinostat and Tubastatin A one measurement
T4 construct: purchased Eurofins Pharma Discovery Services 2493
T4 sequence (P56524 whole entry): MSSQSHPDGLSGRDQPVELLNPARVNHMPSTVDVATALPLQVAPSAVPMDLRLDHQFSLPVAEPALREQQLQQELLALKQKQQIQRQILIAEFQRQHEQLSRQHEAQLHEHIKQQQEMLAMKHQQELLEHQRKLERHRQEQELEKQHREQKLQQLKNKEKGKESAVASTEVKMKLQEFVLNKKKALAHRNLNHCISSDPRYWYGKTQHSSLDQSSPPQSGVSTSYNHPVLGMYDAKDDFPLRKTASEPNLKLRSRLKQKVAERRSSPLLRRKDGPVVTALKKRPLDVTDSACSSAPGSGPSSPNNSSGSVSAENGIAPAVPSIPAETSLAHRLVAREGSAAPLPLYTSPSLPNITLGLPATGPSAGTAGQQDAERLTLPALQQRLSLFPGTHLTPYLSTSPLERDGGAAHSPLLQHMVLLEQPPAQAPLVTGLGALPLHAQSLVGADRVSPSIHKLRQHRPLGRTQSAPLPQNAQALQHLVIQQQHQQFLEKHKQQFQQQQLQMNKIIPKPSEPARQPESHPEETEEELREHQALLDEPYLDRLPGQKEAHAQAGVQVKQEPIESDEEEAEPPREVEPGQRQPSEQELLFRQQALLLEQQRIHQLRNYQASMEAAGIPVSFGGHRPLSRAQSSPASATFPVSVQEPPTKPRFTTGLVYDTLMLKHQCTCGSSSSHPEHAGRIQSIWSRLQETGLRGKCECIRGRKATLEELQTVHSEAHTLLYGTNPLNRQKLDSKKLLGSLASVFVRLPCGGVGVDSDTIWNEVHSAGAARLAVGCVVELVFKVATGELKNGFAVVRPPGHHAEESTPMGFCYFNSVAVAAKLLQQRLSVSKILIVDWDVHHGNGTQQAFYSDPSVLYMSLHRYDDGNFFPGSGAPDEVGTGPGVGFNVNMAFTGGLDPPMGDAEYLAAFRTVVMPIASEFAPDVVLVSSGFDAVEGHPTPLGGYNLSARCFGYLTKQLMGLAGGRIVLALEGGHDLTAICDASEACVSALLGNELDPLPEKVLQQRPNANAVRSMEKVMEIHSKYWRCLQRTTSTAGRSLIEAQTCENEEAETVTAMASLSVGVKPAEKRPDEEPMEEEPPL

[5] = 10 μM spiked into cell media, 18 hrs
[6] = high concentrations of TNF, 8 days
[7] = unchallenged cells and 5 ng/ml TNF

IC50 (HDAC8): 15.8 µM
IC50 (HDAC10): 18.5 µM
free fraction [2]: 23%
stability in human plasma [2]: stable
IC50 [3]: 370 nM
drug concentration after 18 hrs ([4]; 10 μM spiked into ALI cell media in a test tube, 37 °C, LC-MSMS): ~4 µM
compound lost in the system [4, 5]: 60%
remaining after spike test [4, 5]: approximately 40%
IC50 (HDAC4): 12.5 µM
Substance: ACY-1083
CBF [1]: no effect
CXCL10 transcripts (COPD HBEC ALI cultures; [6]): significantly reduced
IL1B transcripts (COPD HBEC ALI cultures; [6]): significantly reduced
IL6 transcripts (COPD HBEC ALI cultures; [6]): significantly reduced
MMP9 transcripts (COPD HBEC ALI cultures; [6]): significantly reduced
MUC5AC mRNA (COPD HBEC ALI cultures; higher concentrations of TNF): no significant effect
MUC5B mRNA (COPD HBEC ALI cultures; higher concentrations of TNF): no significant effect
MUC5AC mRNA (COPD HBEC ALI cultures; [7]): reduced baseline production
MUC5B mRNA (COPD HBEC ALI cultures; [7]): reduced baseline production
